Results as given in the NIST ThermoML archive (doi:10.1016/j.fluid.2007.09.028).

Experiment: xn = mol fraction of the nth substance listed
Settings: 101 kPa, Liquid

Clc1ccccc1 [chlorobenzene] + CC(C)(C)O
mass density [kg/m3]
Settings	303.15 K	308.15 K	313.15 K	318.15 K	323.15 K
x2 = 0	1095.64	1090.23	1084.82	1079.42	1073.97
x2 = 0.0514	1078.9	1073.42	1067.94	1062.44	1056.94
x2 = 0.1001	1063.67	1058.13	1052.58	1047.01	1041.43
x2 = 0.1498	1048.32	1042.74	1037.14	1031.52	1025.89
x2 = 0.199	1033.1	1027.51	1021.89	1016.24	1010.56
x2 = 0.2505	1017.18	1011.59	1005.96	1000.3	994.615
x2 = 0.3	1001.8	996.225	990.603	984.94	979.276
x2 = 0.351	985.908	980.337	974.721	969.053	963.346
x2 = 0.3707	979.707	974.152	968.545	962.885	957.187
x2 = 0.3997	970.62	965.075	959.477	953.823	948.132
x2 = 0.45	954.724	949.206	943.631	937.997	932.311
x2 = 0.5	938.79	933.303	927.755	922.142	916.464
x2 = 0.5499	922.845	917.39	911.872	906.286	900.633
x2 = 0.6003	906.668	901.248	895.76	890.201	884.578
x2 = 0.6499	890.559	885.172	879.716	874.189	868.592
x2 = 0.7002	874.261	868.904	863.477	857.976	852.408
x2 = 0.7482	858.49	853.167	847.772	842.3	836.757
x2 = 0.7998	841.567	836.267	830.896	825.45	819.931
x2 = 0.8498	825.04	819.768	814.423	809	803.512
x2 = 0.9004	808.338	803.082	797.754	792.35	786.87

Clc1ccccc1 [chlorobenzene] + CCC(C)O
mass density [kg/m3]
Settings	288.15 K	293.15 K	298.15 K	303.15 K	308.15 K	313.15 K
x2 = 0	1111.81	1106.43	1101.04	1095.64	1090.23	1084.82
x2 = 0.0496	1097.45	1092.02	1086.59	1081.16	1075.72	1070.28
x2 = 0.1003	1083.13	1077.7	1072.25	1066.79	1061.32	1055.83
x2 = 0.1501	1069.16	1063.74	1058.31	1052.85	1047.37	1041.88
x2 = 0.2	1055.05	1049.66	1044.24	1038.8	1033.33	1027.86
x2 = 0.2502	1040.78	1035.43	1030.05	1024.63	1019.19	1013.73
x2 = 0.3007	1026.39	1021.07	1015.73	1010.35	1004.94	999.501
x2 = 0.3497	1012.26	1006.99	1001.69	996.346	990.966	985.56
x2 = 0.3999	997.723	992.501	987.245	981.952	976.612	971.251
x2 = 0.4499	983.091	977.922	972.717	967.468	962.174	956.834
x2 = 0.5	968.364	963.258	958.109	952.917	947.675	942.399
x2 = 0.5498	953.525	948.484	943.398	938.263	933.079	927.858
x2 = 0.5999	938.418	933.448	928.431	923.362	918.237	913.072
x2 = 0.6499	923.235	918.341	913.397	908.397	903.335	898.213
x2 = 0.7	907.848	903.04	898.18	893.259	888.276	883.238
x2 = 0.75	892.266	887.557	882.791	877.959	873.061	868.109
x2 = 0.8	876.537	871.933	867.265	862.532	857.722	852.839
x2 = 0.8498	860.576	856.092	851.542	846.918	842.221	837.46
x2 = 0.8997	844.324	839.965	835.544	831.044	826.464	821.827
x2 = 0.9502	827.634	823.427	819.146	814.788	810.337	805.821
